Laboratory results from US8906911B2, “Chemokine receptor antagonists” (AbbVie Inc., priority 2012, dated 2014).
Read-outs that look alike come from different tables or passages of the source.

Columns and labels:
[1] = target: rat CCR2 (Rattus norvegicus (Rat), UniProt O55193); test: Inhibition of native agonist (rat MCP-1)-induced intracellular calcium release, calcium flux assay in CHO cells expressing rat CCR2 and Gα16; type: cell-based; conditions: read-out: rCCR2 Kb
Source text: (§1) CHO cells expressing human CCR2B were generated as follows. cDNA for human CCR2B (cloned from human blood) was cloned into plasmid pcDNA3.1 (from Invitrogen). The resulting plasmids were separately transfected into CHO cells expressing human Gα16 (from Molecular Devices). […] CHO cells expressing rat CCR2 were generated as follows. cDNA for rat CCR2 (cloned from rat macrophage) was cloned into plasmid pEF-flag (from Chinese Academy of Science). The resulting plasmids were transfected into CHO cells expressing human Gα16 (from […]).
(§2) Inhibition of Native Agonist-Induced Intracellular Calcium Release in Cells Expressing hCCR2B or rCCR2
(§3) Calcium flux assays were performed in CHO cells expressing human CCR2B and Gα16 coupling protein, or rat CCR2 and Gα16 coupling protein. All compounds were dissolved in DMSO and assays run at a final DMSO concentration of 0.25% (v/v). Human MCP-1 was purchased from PeproTech and used at a final assay concentration of 2 nM, while rat MCP-1 was purchased from R&D and used at a final assay concentration of 4 nM. Assays with cells expressing human CCR2B were performed with human MCP-1, while assays with cells expressing rat CCR2 were performed with rat MCP-1.
(§4) Briefly, cells were cultured overnight in a microtiter plate at 8000 per well. The next day, the resultant adherent cells were incubated in assay buffer (20 mM HEPES, pH 7.4, 0.1% bovine serum albumin, and 2.5 mM probenocid in Hank's Buffered Saline Solution) containing Calcium 4 dye (Molecular Probes) at 37° C. for 60 minutes. Calcium flux assays were performed on a FLIPR^Tetra instrument (Molecular Devices) by adding compound to the cells followed by addition of native agonist and measuring the change in fluorescence as a function of time. Maximal and minimal values for fluorescence were determined using native agonist (2 nM MCP-1) for human or rat CCR2, or buffer addition, respectively. Fluorescence values were used to calculate the percent inhibition at a given compound concentration and the data fit to a sigmoidal curve in a semi-log plot to determine IC50 values. The Kb value is calculated as Kb=IC50/(1+[agonist]/EC50), where [agonist] is the concentration of agonist used and EC50 is the agonist potency determined in the previous experiments. Mean Kb values and IC50 of the compounds assayed are reported in Table 2 and Table 3 respectively.

[2] = target: human CCR2B (Homo sapiens (Human), UniProt P41597); test: Inhibition of native agonist (human MCP-1)-induced intracellular calcium release, calcium flux assay in CHO cells expressing human CCR2B and Gα16; type: cell-based; conditions: for IC50: read-out: hCCR2B IC50; for Kb: read-out: hCCR2B Kb
Sequence of human CCR2B (P41597 other isoform, or with tags, fused parts or gaps): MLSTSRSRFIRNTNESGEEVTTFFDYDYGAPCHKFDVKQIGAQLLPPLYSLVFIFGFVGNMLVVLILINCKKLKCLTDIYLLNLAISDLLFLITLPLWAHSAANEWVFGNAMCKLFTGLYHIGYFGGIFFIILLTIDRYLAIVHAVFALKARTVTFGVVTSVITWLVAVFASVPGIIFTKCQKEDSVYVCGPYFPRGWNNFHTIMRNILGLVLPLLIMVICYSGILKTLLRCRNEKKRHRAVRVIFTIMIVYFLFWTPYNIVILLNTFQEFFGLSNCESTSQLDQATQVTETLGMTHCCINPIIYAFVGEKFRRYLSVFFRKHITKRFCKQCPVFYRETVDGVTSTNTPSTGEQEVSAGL
Source text: as §1, §2, §3, §4

Sequence of rat CCR2 (O55193 whole entry): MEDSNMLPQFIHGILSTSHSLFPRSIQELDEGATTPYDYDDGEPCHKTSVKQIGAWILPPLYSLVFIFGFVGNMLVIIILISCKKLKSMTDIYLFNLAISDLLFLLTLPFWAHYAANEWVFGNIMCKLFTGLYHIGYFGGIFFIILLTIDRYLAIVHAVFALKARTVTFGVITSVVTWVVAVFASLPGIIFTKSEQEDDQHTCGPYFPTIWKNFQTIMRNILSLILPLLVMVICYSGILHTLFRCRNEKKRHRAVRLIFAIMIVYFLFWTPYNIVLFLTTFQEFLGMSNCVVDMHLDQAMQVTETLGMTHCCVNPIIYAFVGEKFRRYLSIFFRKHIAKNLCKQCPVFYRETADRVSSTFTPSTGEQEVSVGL

Row | Compound | Kb [1] [nM] | IC50 ([2]; calcium flux, human MCP-1 2 nM) [nM] | Kb [2] [nM] | IC50 [2] [nM]
1 | CN(C1CCOCC1)C1CC2CCCC2(C(=O)N2CCN(c3ccc(C(F)(F)F)cc3)CC2)C1 (centres unmarked) [Compound A, reference compound] | – | > 50000 | – | –
2 | O=C(N1CCN(c2ccc(C(F)(F)F)cc2)CC1)C12CCCC1CC(N1CCC(c3ccccc3)CC1)C2 (centres unmarked) [Compound B, reference compound] | – | 28000 | – | –
3 | CO[C@@H]1COCC[C@@H]1N[C@@H]1C[C@H]2CCC[C@@]2(C(=O)N2[C@@H]3CC[C@H]2CN(c2cc(C(F)(F)F)ccn2)C3)C1 [Example 8, 1,5-anhydro-2,3-dideoxy-4-O-methyl-3-{[(2R,3aR,6aR)-3a-({(1R,5S)-3-[4-(trifluoromethyl)pyridin-2-yl]-3,8-diazabicyclo[3.2.1]oct-8-yl}carbonyl)octahydropentalen-2-yl]amino}-D-erythro-pentitol] | > 6940 | 14400 | > 3550 | –
4 | O=C(O)c1cccc(C2CCN([C@H]3C[C@H]4CCC[C@@]4(C(=O)N4C[C@@H]5C[C@H]4CN5c4cc(C(F)(F)F)ccn4)C3)CC2)c1 [Example 9, 3-{1-[(2S,3aR,6aR)-3a-({(1S,4S)-5-[4-(trifluoromethyl)pyridin-2-yl]-2,5-diazabicyclo[2.2.1]hept-2-yl}carbonyl)octahydropentalen-2-yl]piperidin-4-yl}benzoic acid] | 22 | – | 116 | 470

Second part, led by results:

Row | Kb [1] [nM] | IC50 ([2]; calcium flux, human MCP-1 2 nM) [nM] | Kb [2] [nM] | Compound | IC50 [2] [nM]
5 | 317 | 1600 | 394 | CO[C@@H]1COCC[C@@H]1N[C@@H]1C[C@H]2CCC[C@@]2(C(=O)N2C[C@@H]3C[C@H]2CN3c2nccc(C(F)(F)F)c2C)C1 (racemic) [Example 38, 1,5-anhydro-2,3-dideoxy-4-O-methyl-3-{[(2R,3aR,6aR)-3a-({(1S,4S)-5-[3-methyl-4-(trifluoromethyl)pyridin-2-yl]-2,5-diazabicyclo[2.2.1]hept-2-yl}carbonyl)octahydropentalen-2-yl]amino}-D-erythro-pentitol] | –
6 | 29 | – | – | CO[C@@H]1COCC[C@H]1N[C@@H]1C[C@H]2CCC[C@@]2(C(=O)N2C[C@@H]3C[C@H]2CN3c2cc(C(F)(F)F)cnn2)C1 (stereo in doubt) [Example 6] | –
7 | 694 | 2500 | 614 | CO[C@@H]1COCC[C@@H]1N[C@@H]1C[C@H]2CCC[C@@]2(C(=O)N2C[C@H]3C[C@@H]2CN3c2cc(C(F)(F)F)ccn2)C1 [Example 3, 1,5-anhydro-2,3-dideoxy-4-O-methyl-3-{[(2R,3aR,6aR)-3a-({(1R,4R)-5-[4-(trifluoromethyl)pyridin-2-yl]-2,5-diazabicyclo[2.2.1]hept-2-yl}carbonyl)octahydropentalen-2-yl]amino}-D-erythro-pentitol] | –
8 | > 6940 | 25000 | > 6140 | CO[C@@H]1COCC[C@H]1N[C@@H]1C[C@H]2CCC[C@@]2(C(=O)N2C[C@H]3C[C@@H]2CN3c2cc(C(F)(F)F)ccn2)C1 [Example 4, 1,5-anhydro-2,3-dideoxy-4-O-methyl-3-{[(2R,3aR,6aR)-3a-({(1R,4R)-5-[4-(trifluoromethyl)pyridin-2-yl]-2,5-diazabicyclo[2.2.1]hept-2-yl}carbonyl)octahydropentalen-2-yl]amino}-D-threo-pentitol] | –
9 | 7 | – | – | CO[C@@H]1COCC[C@@H]1N[C@@H]1C[C@H]2CCC[C@@]2(C(=O)N2C[C@@H]3C[C@H]2CN3c2cc(C(F)(F)F)cnn2)C1 [Example 5, 1,5-anhydro-2,3-dideoxy-4-O-methyl-3-{[(2R,3aR,6aR)-3a-({(1S,4S)-5-[5-(trifluoromethyl)pyridazin-3-yl]-2,5-diazabicyclo[2.2.1]hept-2-yl}carbonyl)octahydropentalen-2-yl]amino}-D-erythro-pentitol] | –
10 | 74 | – | – | CO[C@@H]1COCC[C@@H]1N[C@@H]1C[C@H]2CCC[C@@]2(C(=O)N2C[C@@H]3C[C@H]2CN3c2cc(C(F)(F)F)cc(C)n2)C1 [Example 11, 1,5-anhydro-2,3-dideoxy-4-O-methyl-3-{[(2R,3aR,6aR)-3a-({(1S,4S)-5-[6-methyl-4-(trifluoromethyl)pyridin-2-yl]-2,5-diazabicyclo[2.2.1]hept-2-yl}carbonyl)octahydropentalen-2-yl]amino}-D-erythro-pentitol] | –
